# Experimental data from patent publication US20240269106A1, “SMALL MOLECULE MODULATOR TARGETING A RARE HISTONE MODIFICATION REGULATING ADIPOGENESIS AND PHARMACEUTICAL FORMULATION THEREOF” (COUNCIL OF SCIENTIFIC AND INDUSTRIAL RESEARCH AN INDIAN …, priority 2021, published 2024).
# How the values were obtained:
# full length p300 [1] = molecular target: T1, full length p300 (Homo sapiens, UniProt Q09472); test: In vitro p300 acetylation assay (immunoblot); format: biochemical; conditions: for effect on p300 catalysed acetyltransferase activity: FIG. 2i, immunoblot
# T1 construct: Purified full length p300 protein was used for in vitro acetylation/butyrylation assay
# T1 sequence (Q09472 whole entry, species assumed): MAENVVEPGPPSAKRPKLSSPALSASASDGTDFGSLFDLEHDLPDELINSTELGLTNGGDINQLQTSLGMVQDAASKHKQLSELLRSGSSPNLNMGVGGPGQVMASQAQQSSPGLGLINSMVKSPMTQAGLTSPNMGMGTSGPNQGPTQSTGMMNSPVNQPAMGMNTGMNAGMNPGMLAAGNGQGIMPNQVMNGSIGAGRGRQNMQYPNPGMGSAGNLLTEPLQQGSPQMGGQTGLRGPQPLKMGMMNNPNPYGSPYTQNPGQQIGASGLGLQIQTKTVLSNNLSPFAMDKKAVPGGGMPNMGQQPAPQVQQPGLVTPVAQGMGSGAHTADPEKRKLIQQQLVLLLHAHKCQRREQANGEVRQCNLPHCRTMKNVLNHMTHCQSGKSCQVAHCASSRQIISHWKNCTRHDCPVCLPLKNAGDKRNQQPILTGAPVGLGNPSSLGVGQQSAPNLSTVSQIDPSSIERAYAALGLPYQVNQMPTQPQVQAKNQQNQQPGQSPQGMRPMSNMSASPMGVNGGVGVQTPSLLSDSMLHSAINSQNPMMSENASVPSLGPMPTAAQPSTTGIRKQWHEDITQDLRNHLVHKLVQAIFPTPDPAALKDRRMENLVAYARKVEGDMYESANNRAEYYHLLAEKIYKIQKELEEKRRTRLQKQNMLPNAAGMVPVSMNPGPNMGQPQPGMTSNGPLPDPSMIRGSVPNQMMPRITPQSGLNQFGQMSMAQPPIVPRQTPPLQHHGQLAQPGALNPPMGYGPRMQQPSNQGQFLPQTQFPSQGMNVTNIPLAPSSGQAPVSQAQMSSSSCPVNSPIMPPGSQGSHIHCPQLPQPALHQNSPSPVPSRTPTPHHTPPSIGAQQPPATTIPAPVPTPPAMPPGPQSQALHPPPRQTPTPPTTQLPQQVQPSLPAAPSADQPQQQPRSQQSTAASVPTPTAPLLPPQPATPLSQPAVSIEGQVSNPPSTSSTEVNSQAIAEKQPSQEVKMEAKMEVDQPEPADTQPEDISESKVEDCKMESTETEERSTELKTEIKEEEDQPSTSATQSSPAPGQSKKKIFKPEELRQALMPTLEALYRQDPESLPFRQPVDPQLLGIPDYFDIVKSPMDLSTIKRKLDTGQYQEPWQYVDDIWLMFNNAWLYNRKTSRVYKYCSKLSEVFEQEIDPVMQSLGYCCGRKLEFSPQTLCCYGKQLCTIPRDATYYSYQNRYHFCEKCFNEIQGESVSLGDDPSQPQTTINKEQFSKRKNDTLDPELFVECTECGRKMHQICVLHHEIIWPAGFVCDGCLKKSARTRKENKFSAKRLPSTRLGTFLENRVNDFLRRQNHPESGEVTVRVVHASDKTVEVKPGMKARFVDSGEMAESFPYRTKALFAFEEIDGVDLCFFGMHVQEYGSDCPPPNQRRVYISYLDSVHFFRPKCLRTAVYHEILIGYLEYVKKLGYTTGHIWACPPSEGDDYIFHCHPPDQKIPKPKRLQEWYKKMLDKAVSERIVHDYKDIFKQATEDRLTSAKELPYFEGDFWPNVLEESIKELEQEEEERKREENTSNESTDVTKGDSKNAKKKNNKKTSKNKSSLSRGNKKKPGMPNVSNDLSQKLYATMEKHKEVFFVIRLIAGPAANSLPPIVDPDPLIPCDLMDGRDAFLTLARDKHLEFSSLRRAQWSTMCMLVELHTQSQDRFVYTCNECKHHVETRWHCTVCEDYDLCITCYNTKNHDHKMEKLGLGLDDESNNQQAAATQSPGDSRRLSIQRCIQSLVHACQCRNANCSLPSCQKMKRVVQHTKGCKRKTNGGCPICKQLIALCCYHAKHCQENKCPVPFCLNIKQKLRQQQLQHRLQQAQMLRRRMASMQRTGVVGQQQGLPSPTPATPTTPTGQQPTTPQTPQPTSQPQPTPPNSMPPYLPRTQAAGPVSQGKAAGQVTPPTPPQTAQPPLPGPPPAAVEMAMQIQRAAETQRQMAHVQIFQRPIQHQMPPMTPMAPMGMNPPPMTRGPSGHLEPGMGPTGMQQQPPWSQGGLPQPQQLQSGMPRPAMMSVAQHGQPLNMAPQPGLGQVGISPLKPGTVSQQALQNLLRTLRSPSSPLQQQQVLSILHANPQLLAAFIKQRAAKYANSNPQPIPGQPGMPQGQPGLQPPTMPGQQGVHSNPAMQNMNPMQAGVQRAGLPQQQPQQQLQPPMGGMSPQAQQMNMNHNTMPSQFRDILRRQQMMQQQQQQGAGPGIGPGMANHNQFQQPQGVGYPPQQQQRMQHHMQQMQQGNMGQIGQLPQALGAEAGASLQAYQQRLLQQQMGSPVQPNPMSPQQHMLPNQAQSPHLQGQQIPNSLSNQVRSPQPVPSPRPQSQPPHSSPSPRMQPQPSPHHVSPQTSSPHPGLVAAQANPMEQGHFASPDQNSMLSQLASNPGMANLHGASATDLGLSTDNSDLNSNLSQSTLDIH
# Procedure: (§1) Purified full length p300 protein was used for in vitro acetylation/butyrylation assay in presence/absence of different compounds. Acylation reactions were performed in reaction buffer (25 mM Tris-HCl PH 7.5, 100 mM NaCl, 0.1 mM EDTA, 1 mM DTT, 10% Glycerol, 1×PIC) with 100 ng/ml TSA, and 50 μM Butyryl-CoA/Acetyl COA. Xenopus histone H3 (500 ng) was used as the substrate and p300 (10,000 cpm activity) was used as the enzyme. Reactions were incubated in presence or absence of small molecule modulators (including compound of Formula I) for 10 minutes at 30° C., followed by initiation of the acetylation/butyrylation reaction by the addition of acetyl/butyryl CoA. After a further 10 minutes, reactions were stopped by addition of Laemmli buffer and samples were used for immunoblotting.
# (§2) Immunoblotting with antibodies against acetylated H3K18, acetylated H3K9 and pan-butyryl lysine was performed to check for the relative inhibition of acetyl transferase and butyryl transferase activities of full length p300 by garcinol, isogarcinol and its different derivatives including compound of Formula I at different concentrations. FIG. 2i depicts the effect of garcinol, isogarcinol and two of its derivatives LTK-13 and LTK-14 on p300 catalysed acetyltransferase activity. […] FIG. 2ii depicts the effect of LTK-14 on acetylation and butyrylation catalysed by p300. Lane 1, enzyme alone; Lane 2-4, enzyme+LTK-14 at concentrations 500 nM, 2 μM and 10 μM, respectively. LTK-14 could inhibit acetylation at 10 μM concentration while butyrylation was inhibited at 2 μM concentration. FIG. 2iii depicts the effect of compound x on acetylation and butyrylation catalysed by p300. Lane 1, enzyme alone; Lane 2, enzyme+DMSO; Lane 3-6, enzyme+compound x at concentrations 10, 15, 20 and 25 μM, respectively.
# full length p300 [2] = molecular target: T1, full length p300; test: In vitro p300 butyrylation assay (immunoblot); format: biochemical; conditions: for effect on p300 catalysed butyrylation: FIG. 2 legend
# Procedure: as §1, §2
# [3] = tested at 500 nM, 2 μM and 10 μM
effect on p300 catalysed acetyltransferase activity (full length p300 [1]),concentration at which acetylation was inhibited (full length p300 [1]; [3]),effect on p300 catalysed butyrylation (full length p300 [2]),concentration at which butyrylation was inhibited (full length p300 [2]; [3]),SMILES
showed inhibitory effect,10 µM,can inhibit,2 µM,COc1ccc(C(=O)C2=C3OC(C)(C)[C@@H](CC=C(C)C)C[C@@]34C[C@@H](CC=C(C)C)C(C)(C)[C@@](CC=C(C)C)(C2=O)C4=O)cc1O [LTK-14]
showed inhibitory effect,–,can inhibit,–,CC(C)=CC[C@H]1C[C@@]23C[C@@H](CC=C(C)C)C(C)(C)[C@@](CC=C(C)C)(C(=O)C(C(=O)c4ccc(O)c(O)c4)=C2OC1(C)C)C3=O [isogarcinol]
